Results as given in patent publication EP0771196B1, “EXCITATORY AMINO ACID RECEPTOR ANTAGONISTS” (ELI LILLY AND COMPANY, priority 1994, dated 1996).
Marks after values point to notes of the source that are not given here.

system: metabotropic glutamate receptors; assay: Displacement of 1S,3R-ACPD-sensitive [3H]glutamate binding to rat brain cell membranes; conditions: crude membranes of rat forebrain; 10 µM compound
Protocol: The binding of [^3H]glutamate was conducted with crude membranes of rat forebrain as described by Schoepp and True. Schoepp and True, Neuroscience Lett., 145, 100-104 (1992) and True and Schoepp, Society for Neuroscience Abstracts, 19, 470 (1993). IC50 values for the inhibition of [^3H]glutamate binding, or the percent displacement of [^3H]glutamate binding at a 10 µM concentration, of the formula I compound, is shown in Table II.

Row | Structure (SMILES) | ACPD-Sensitive [^3H]Glutamate Binding % Displacement at 10 µM
1 | NC(CCC1CCNCC1)(C(=O)O)C1CC1C(=O)O (stereo not drawn) [Example 45, 2SR- and 2RS-2-amino-2-(1SR,2SR-2-carboxycyclopropan-1-yl)-2-(piperidin-4-yl)butanoic acid] | (42%)
2 | NC(C(=O)O)(C1Cc2ccccc2C1)C1CC1C(=O)O (stereo not drawn) [Example 43, 2SR- and 2RS-2-amino-2-(1SR,2SR-2-carboxycyclopropan-1-yl)-2-(indan-2-yl)ethanoic acid] | (32%)

same assay, conditions: crude membranes of rat forebrain; 10 µM compound; 10 µM

Row | Structure (SMILES) | ACPD-Sensitive [^3H]Glutamate Binding % Displacement at 10 µM
3 | Cc1cccc(CCC(N)(C(=O)O)C2CC2C(=O)O)c1 (stereo not drawn) [Example 69, 2R-2-amino-2-(1R ,2R-2-carboxycyclopropan-1-yl)-4-(3-methylphenyl)butanoic acid] | (13%)^d

same assay, conditions: crude membranes of rat forebrain; inhibition of [3H]glutamate binding

Row | Structure (SMILES) | IC50
4 | COc1ccc(CCC(N)(C(=O)O)C2CC2C(=O)O)cc1 (stereo not drawn) [Example 28, 2SR- and 2RS-2-amino-2-(1SR,2SR-2-carboxycyclopropan-1-yl)-4-(4-methoxyphenyl)butanoic acid] | 1400 nM
5 | COc1ccccc1CCC(N)(C(=O)O)C1CC1C(=O)O (stereo not drawn) [Example 26, 2SR- and 2RS-2-amino-2-(1SR,2SR-2-carboxycyclopropan-1-yl) -4-(2-methoxyphenyl)butanoic acid] | 170 nM
6 | NC(CCc1ccc2ccccc2c1)(C(=O)O)[C@H]1C[C@@H]1C(=O)O (mixture of isomers) [Example 19, 2SR- and 2RS-2-amino-2-(1SR,2SR-2-carboxycyclopropan-1-yl)-4-(naphth-2-yl)butanoic acid] | 2800 nM
7 | CCCCCCCCC(N)(C(=O)O)[C@H]1C[C@@H]1C(=O)O (mixture of isomers) [Example 13, 2SR- and 2RS-2-amino-2-(1SR,2SR-2-carboxycyclopropan-1-yl)decanoic acid] | 1700 nM
8 | NC(CCc1ccccc1Cl)(C(=O)O)[C@H]1C[C@@H]1C(=O)O (mixture of isomers) [Example 23, 2SR- and 2RS-2-amino-2-(1SR,2SR-2-carboxycyclopropan-1-yl)-4-(2-chlorophenyl)butanoic acid] | 260 nM
9 | NC(CCCC(c1ccccc1)c1ccccc1)(C(=O)O)C1CC1C(=O)O (stereo not drawn) [Example 7, 2SR- and 2RS-2-amino-2-(1SR,2SR-2-carboxycyclopropan-1-yl)-6,6-diphenylhexanoic acid] | 7000 nM
10 | Cc1cccc(CCC(N)(C(=O)O)[C@H]2C[C@@H]2C(=O)O)c1 (mixture of isomers) [Example 21, 2SR- and 2RS-2-amino-2-(1SR,2SR-2-carboxycyclopropan-1-yl)-4-(3-methylphenyl)butanoic acid] | 38 nM
11 | NC(CCc1cccc(O)c1)(C(=O)O)C1CC1C(=O)O (stereo not drawn) [Example 30, 2SR- and 2RS-2-amino-2-(1SR,2SR-2-carboxycyclopropan-1-yl)-4-(3-hydroxyphenyl)butanoic acid] | 80 nM
12 | NC(CCc1ccccc1)(C(=O)O)C1CC1C(=O)O (stereo not drawn) [Example 2, 2SR- and 2RS-2-amino-2-(1SR,2SR-2-carboxycyclopropan-1-yl)-4-phenylbutanoic acid] | 320 nM
13 | CCCCC(N)(C(=O)O)C1CC1C(=O)O (stereo not drawn) [Example 11, 2SR- and 2RS-2-amino-2-(1SR,2SR-2-carboxycyclopropan-1-yl)hexanoic acid] | 1400 nM
14 | NC(CCCc1ccccc1)(C(=O)O)C1CC1C(=O)O (stereo not drawn) [Example 3, 2SR- and 2RS-2-amino-2-(1SR,2SR-2-carboxycyclopropan-1-yl)-5-phenylpentanoic acid] | 630 nM
15 | NC(CCc1cccc2ccccc12)(C(=O)O)[C@H]1C[C@@H]1C(=O)O (mixture of isomers) [Example 18, 2SR- and 2RS-2-amino-2-(1SR,2SR-2-carboxycyclopropan-1-yl)-4-(naphth-1-yl)butanoic acid] | 140 nM
16 | NC(CCC(c1ccccc1)c1ccccc1)(C(=O)O)C1CC1C(=O)O (stereo not drawn) [Example 6, 2SR- and 2RS-2-amino-2-(1SR,2SR-2-carboxycyclopropan-1-yl)-5,5-diphenylpentanoic acid] | 7100 nM

Second part, the molecule after the results:

Row | IC50 | Structure (SMILES)
17 | 170 nM | COc1ccc(OC)c(CCC(N)(C(=O)O)C2CC2C(=O)O)c1 (stereo not drawn) [Example 32, 2SR- and 2RS-2-amino-2-(1SR,2SR-2-carboxycyclopropan-1-yl)-4-(2,5-dimethoxyphenyl)butanoic acid]
18 | 370 nM | NC(CCc1ccc(C(=O)O)cc1)(C(=O)O)[C@H]1C[C@@H]1C(=O)O (mixture of isomers) [Example 80, 2SR- and 2RS-2-amino-2-(1SR,2SR-2-carboxycyclopropan-1-yl)-4-(4-carboxyphenyl)butanoic acid]
19 | 460 nM | COc1ccc(CCC(N)(C(=O)O)C2CC2C(=O)O)cc1OC (stereo not drawn) [Example 33, 2SR- and 2RS-2-amino-2-(1SR,2SR-2-carboxycyclopropan-1-yl)-4-(3,4-dimethoxyphenyl)butanoic acid]
20 | 23 nM | NC(CCc1ccc(F)cc1)(C(=O)O)[C@H]1C[C@@H]1C(=O)O (mixture of isomers) [Example 54, 2SR- and 2RS-2-amino-2-(1SR,2SR-2-carboxycyclopropan-1-yl)-4-(4-fluorophenyl)butanoic acid]
21 | 2000 nM | N[C@@](CC(c1ccccc1)c1ccccc1)(C(=O)O)[C@H]1C[C@@H]1C(=O)O [Example 63, 2R 2-amino-2-(1S,2S-2-carboxycyclopropan-1-yl)-4,4-diphenylbutanoic acid]
22 | 11200 nM | NC(COc1ccccc1)(C(=O)O)C1CC1C(=O)O (stereo not drawn) [Example 39, 2SR- and 2RS-2-amino-2-(1SR,2SR-2-carboxycyclopropan-1-yl)-3-phenoxypropanoic acid]
23 | 2600 nM | NC(CCC1C2CCCC1CCC2)(C(=O)O)[C@H]1C[C@@H]1C(=O)O (mixture of isomers) [Example 83, 2SR- and 2RS-2-amino-2-(1SR,2SR-2-carboxycyclopropan-1-yl)-4-(9-bicyclo[3.3.1]nonanyl)butanoic acid]
24 | 480 nM | NC(CCc1ccccc1C(F)(F)F)(C(=O)O)[C@H]1C[C@@H]1C(=O)O (mixture of isomers) [Example 57, 2SR- and 2RS-2-amino-2-(1SR,2SR-2-carboxycyclopropan-1-yl)-4-(2-(trifluoromethyl)phenyl)butanoic acid]
25 | 370 nM | NC(CCc1c(F)c(F)c(F)c(F)c1F)(C(=O)O)[C@H]1C[C@@H]1C(=O)O (mixture of isomers) [Example 50, 2SR- and 2RS-2-amino-2-(1SR,2SR-2-carboxycyclopropan-1-yl)-4-(2,3,4,5,6-pentafluorophenyl)butanoic acid]
26 | 860 nM | N[C@](Cc1cccc2c1Oc1ccccc1C2)(C(=O)O)[C@@H]1C[C@H]1C(=O)O [Example 73, 2S-2 amino-2-(1R,2R-2-carboxycyclopropan-1-yl)-3-(dibenzopyran-4-yl)propanoic acid]
27 | 12 ± 3 nM | Cc1cccc(CCC(N)(C(=O)O)C2CC2C(=O)O)c1 [Example 68, 2S-2-amino-2-(1S,2S-2-carboxycyclopropan-1-yl)-4-(3-methylphenyl)butanoic acid]
28 | 680 nM | NC(CCc1ccc(Br)cc1)(C(=O)O)[C@H]1C[C@@H]1C(=O)O (mixture of isomers) [Example 82, 2SR- and 2RS-2-amino-2-(1SR,2SR-2-carboxycyclopropan-1-yl)-4-(4-bromophenyl)butanoic acid]
